Measured values: patent US10882856B2 (BeiGene, Ltd., priority 2017, dated 2021)
Like-named read-outs stand apart in the source and are kept apart here.

Tests used:
[1] = molecular target: T1, cellular TDO2 in HEK293-TDO2 cells (Homo sapiens, UniProt P48775); test: 293-TDO2 cell-based assay (Kyn colorimetric); conditions: 48 hours of incubation
T1 construct: expressed in transfected cells; host or cells: HEK293 (ATCC), stably transfected
Experimental: The inhibitory activity of TDO2 inhibitors is determined by using a colorimetric reaction to measure Kyn generated from L-Trp (L-Tryptophon) oxidation by cellular TDO2 in HEK293-TDO2 cells stably transfected with a plasmid expression of Tryptophan 2,3-dioxygenase (for short, 293-TDO2).
HEK293 cells were obtained from the American Type Culture Collection and 293-TDO2 were recovered in 10% FBS-containing phenol red-free DMEM medium. Cells were plated onto a 96-well plate (100 μl/well) at 10000 cells per well and kept at 37° C. in a humidified incubator supplied with 5% CO2. 4 hours later, Compounds at different concentrations diluted in dimethylsulfoxide (DMSO) were added to plate. Cells were kept at 37° C. in a humidified incubator supplied with 5% CO2. After 48 hours of incubation, 100 μl supernatant from each well was removed to a new plate. The protein in the medium was precipitated with the addition of 8 μl 6N trichloroacetic acid. The plate was incubated at 60° C. for 30 minutes and then centrifugation at 2500 rpm for 10 minutes to remove sediments. 80 μl supernatants were carefully removed to a new clean plate and added with an equal volume of 2% 4-(Dimethylamino) benzaldehyde (D2004, sigma) dissolved in glacial acetic acid. The absorbance at 480 nm wavelength derived from Kyn was measured using a PHERAstar FS plate reader (BMG LABTECH). The IC50 for each compound was derived from fitting the dose-response data to the four-parameter logistic model by using XLfit software (IDBS).

IDO1 [2] = molecular target: T2, IDO1 (Homo sapiens, UniProt P14902); test: IDO1 enzymatic assay; assay type: biochemical; design: His tag (N); made in house; host or cells: E. coli
Summary of the method: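 Compound was incubated with 50 nM His-tagged IDO1 from E. coli, 1.3 mM D-tryptophan, 5 mM L-ascorbic acid, methylene blue and 0.4 mg/mL catalase in 50 mM potassium phosphate pH 7.5, 0.1% BSA, at 24 °C for 1.5 hours. Activity was the slope of N'-formylkynurenine formation read continuously at 321 nm for 1 hour. IC50 was obtained from remaining activity versus compound concentration.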

IDO1 [3] = molecular target: T2, IDO1; test: Hela cell-based IDO1 assay; conditions: Hela cells
Summary of the method: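 Kynurenine was measured at 480 nm in trichloroacetic acid-deproteinised supernatant after adding 2% 4-(dimethylamino)benzaldehyde. This supernatant came from HeLa cells seeded at 8000 per well in 96-well plates in phenol red-free DMEM with 10% FBS and, from 4 hours after seeding, exposed for 48 hours at 37 °C, 5% CO2 to DMSO-diluted compound dilutions, IFN-γ (final 100 ng/mL) and 0.4 mM L-Trp. The resulting data were fitted with a four-parameter logistic model in XLfit. Potency was taken from those fits.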

T1 sequence (P48775 whole entry): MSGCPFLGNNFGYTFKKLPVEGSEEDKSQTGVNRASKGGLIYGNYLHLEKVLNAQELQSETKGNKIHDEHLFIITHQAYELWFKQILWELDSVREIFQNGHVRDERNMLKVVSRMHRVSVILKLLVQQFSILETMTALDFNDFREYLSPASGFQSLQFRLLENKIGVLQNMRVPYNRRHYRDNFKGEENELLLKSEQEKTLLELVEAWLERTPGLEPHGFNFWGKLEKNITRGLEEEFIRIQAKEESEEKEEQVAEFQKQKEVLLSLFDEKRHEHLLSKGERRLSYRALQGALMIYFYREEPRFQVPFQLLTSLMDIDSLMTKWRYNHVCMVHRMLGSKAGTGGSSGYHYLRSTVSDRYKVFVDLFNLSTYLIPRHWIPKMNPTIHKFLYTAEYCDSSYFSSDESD
T2 sequence (P14902 whole entry): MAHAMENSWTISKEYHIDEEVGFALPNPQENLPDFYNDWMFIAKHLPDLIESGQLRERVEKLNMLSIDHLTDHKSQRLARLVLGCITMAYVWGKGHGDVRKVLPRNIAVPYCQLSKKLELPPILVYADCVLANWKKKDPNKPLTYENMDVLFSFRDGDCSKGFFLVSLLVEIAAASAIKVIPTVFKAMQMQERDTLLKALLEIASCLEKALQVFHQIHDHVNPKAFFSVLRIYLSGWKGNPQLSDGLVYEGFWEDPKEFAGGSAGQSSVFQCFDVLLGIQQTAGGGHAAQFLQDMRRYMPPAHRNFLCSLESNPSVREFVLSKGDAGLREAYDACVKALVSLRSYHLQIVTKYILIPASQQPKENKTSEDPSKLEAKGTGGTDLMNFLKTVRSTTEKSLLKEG

SMILES	EC50 [1] [µM]	IC50 (IDO1 [2]; read-out: Enzyme IC50 IDO1) [µM]	EC50 (IDO1 [3]) [µM]	IC50 (IDO1 [2]; heading: Enzyme IC50 IDO1) [µM]
O[C@@H](c1c(C2CC2)ccn2cncc12)[C@H]1CC[C@H](c2cccc3ncccc32)CC1 (single isomer, unassigned) [Example C126b]	> 10	1.9	6.05	
O[C@H](c1c(C2CC2)ccn2cncc12)[C@H]1CC[C@H](c2ccnc3ccccc32)CC1 (single isomer, unassigned) [Example C130a]	> 10	0.017	0.044	
O[C@@H](c1c(C2CC2)ccn2cncc12)[C@H]1CC[C@H](c2ccnc3ccccc32)CC1 (single isomer, unassigned) [Example C130b]	> 10	2.5	6.22	
O[C@H](c1c(C2CC2)ccn2cncc12)[C@H]1CC[C@H](c2ccc(F)c(Cl)c2)CC1 (single isomer, unassigned) [Example C132a]	> 10	0.064	0.188	
O[C@@H](c1c(C2CC2)ccn2cncc12)[C@H]1CC[C@H](c2ccc(F)c(Cl)c2)CC1 (single isomer, unassigned) [Example C132b]	> 10	2.5	> 10	
OC(c1c(C2CC2)ccn2cncc12)C1CCN(c2ccccc2)CC1 (single isomer, unassigned) [Example C136a]	> 10	0.021	0.047	
OC(c1c(C2CC2)ccn2cncc12)C1CCN(c2ccccc2)CC1 (single isomer, unassigned) [Example C136b]	> 10	5.4	> 10	
OC(c1c(C2CC2)ccn2cncc12)C1CCN(c2ccc(F)cc2)CC1 (single isomer, unassigned) [Example C137a]	> 10	0.026	0.074	
OC(c1c(C2CC2)ccn2cncc12)C1CCN(c2ccc(F)cc2)CC1 (single isomer, unassigned) [Example C137b]	> 10	4.1	> 10	
N#Cc1ccc(N2CCC(C(O)c3c(C4CC4)ccn4cncc34)CC2)cc1 (single isomer, unassigned) [Example C144a]	> 10	0.019	0.476	
N#Cc1ccc(N2CCC(C(O)c3c(C4CC4)ccn4cncc34)CC2)cc1 (single isomer, unassigned) [Example C144b]	> 10	> 10	> 10	
OC(c1c(C2CC2)ccn2cncc12)C1CCN(c2ccc(F)c3ncccc23)CC1 (single isomer, unassigned) [Example C149b]	> 10	2.4	2.91	
OC(c1c(C2CC2)ccn2cncc12)C1CCN(c2ccc(Cl)c3ncccc23)CC1 (single isomer, unassigned) [Example C154a]	> 10	0.016	0.018	
OC(c1c(C2CC2)ccn2cncc12)C1CCN(c2ccc(Cl)c3ncccc23)CC1 (single isomer, unassigned) [Example C154b]	> 10	2.9	6.45	
OC(c1c(C2CC2)ccn2cncc12)C1CCN(c2ccc(F)c3cccnc23)CC1 (single isomer, unassigned) [Example C155a]	> 10	7.5	> 10	
OC(c1c(C2CC2)ccn2cncc12)C1CCN(c2ccc(F)c3cccnc23)CC1 (single isomer, unassigned) [Example C155b]	> 10	0.026	0.04	

The next lines start with the values.

EC50 [1] [µM]	IC50 (IDO1 [2]; read-out: Enzyme IC50 IDO1) [µM]	EC50 (IDO1 [3]) [µM]	IC50 (IDO1 [2]; heading: Enzyme IC50 IDO1) [µM]	SMILES
> 10	1.3	6.14		O[C@@H](c1c(C2CC2)ccc2cncn12)[C@H]1CC[C@H](c2ccccc2)CC1 (single isomer, unassigned) [Example D101b]
> 10		6.77	> 10	COc1ccc([C@H]2CC[C@H]([C@@H](O)c3c(C4CC4)ccc4cncn34)CC2)cc1 (single isomer, unassigned) [Example D102b]
> 10	1.9	> 10		OC(c1c(C2CC2)ccc2cncn12)[C@H]1CC[C@@H](c2ccc(Cl)cc2)CC1 (single isomer, unassigned) [Example D103a]
> 10	7.8	6.88		OC(c1c(C2CC2)ccc2cncn12)[C@H]1CC[C@H](c2ccc(Cl)cc2)CC1 (single isomer, unassigned) [Example D103b]
> 10	9.9	6.83		O[C@@H](c1c(C2CC2)ccc2cncn12)[C@H]1CC[C@H](c2ccc(F)cc2)CC1 (single isomer, unassigned) [Example D104b]
> 10	> 10	3.9		O[C@@H](c1c(C2CC2)ccc2cncn12)[C@H]1CC[C@H](c2ccc(OC(F)(F)F)cc2)CC1 (single isomer, unassigned) [Example D105b]
> 10	0.036	1.26		OC(c1c(C2CC2)ccc2cncn12)[C@H]1CC[C@H](c2ccc(C(F)(F)F)nc2)CC1 (single isomer, unassigned) [Example D107a]
> 10	2.3	> 10		OC(c1c(C2CC2)ccc2cncn12)[C@H]1CC[C@H](c2ccc(C(F)(F)F)nc2)CC1 (single isomer, unassigned) [Example D107b]
> 10	> 10	> 10		N#Cc1ccc([C@H]2CC[C@H]([C@@H](O)c3c(C4CC4)ccc4cncn34)CC2)cc1 (single isomer, unassigned) [Example D110b]
> 10	0.017	0.351		O=C(O)c1ccc([C@H]2CC[C@H]([C@H](O)c3c(C4CC4)ccc4cncn34)CC2)cc1 (single isomer, unassigned) [Example D111a]
> 10	1.2	> 10		O=C(O)c1ccc([C@H]2CC[C@H]([C@@H](O)c3c(C4CC4)ccc4cncn34)CC2)cc1 (single isomer, unassigned) [Example D111b]
> 10	0.015	0.026		Oc1ccccc1[C@H]1CC[C@H]([C@H](O)c2c(C3CC3)ccc3cncn23)CC1 (single isomer, unassigned) [Example D112a]
> 10	1.7	> 10		Oc1ccccc1[C@H]1CC[C@H]([C@@H](O)c2c(C3CC3)ccc3cncn23)CC1 (single isomer, unassigned) [Example D112b]
> 10	2.6	3.97		OC(c1c(C2CC2)ccc2cncn12)[C@H]1CC[C@H](c2ccc(OC3CCOCC3)cc2)CC1 (single isomer, unassigned) [Example D114b]
> 10	4.3	5.68		CC(C)c1ccc2cncn2c1[C@H](O)[C@H]1CC[C@H](c2ccc(Cl)cc2)CC1 (single isomer, unassigned) [Example D115b]
> 10	5.9	6.15		O[C@@H](c1c(C2CC2)ccc2cncn12)[C@H]1CC[C@H](c2cccc(Cl)c2)CC1 (single isomer, unassigned) [Example D116b]
> 10	0.03	0.492		O[C@H](c1c(C2CC2)ccc2cncn12)[C@H]1CC[C@H](c2ccccc2Cl)CC1 (single isomer, unassigned) [Example D117a]
> 10	> 10	0.099		O[C@@H](c1c(C2CC2)ccc2cncn12)[C@H]1CC[C@H](c2ccccc2Cl)CC1 (single isomer, unassigned) [Example D117b]
> 10	> 10	8.41		O[C@@H](c1c(C2CC2)ccc2cncn12)[C@H]1CC[C@H](c2ccc(Br)cc2)CC1 (single isomer, unassigned) [Example D118b]
> 10	2.2	3.53		O[C@@H](c1c(C2CC2)ccc2cncn12)[C@H]1CC[C@H](c2ccc(-c3ccccc3)cc2)CC1 (single isomer, unassigned) [Example D119b]
